# Assays:
# Format in all cases: in vivo
# [1] = tested on: ivyleaf morningglory (Ipomoea hederacea, IPOHE); test: Pre-emerge greenhouse herbicide test, phytotoxicity rating; conditions: 14 days after application, rating scale 0-100
# Method in brief: (§1)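 Visual 0–100 injury rating (100 = all plants dead) taken 14 days after treatment. Rates of 125–1000 g ai/ha in acetone, 187 l/ha, were sprayed onto soil one day post-sowing; pots were surface-watered to incorporate, then bottom-watered.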
# [2] = tested on: lambsquarters (Chenopodium album, CHEAL); test: as above; conditions: 14 days after application, rating scale 0-100
# Method in brief: as §1
# [3] = tested on: large crabgrass (Digitaria sanguinalis, DIGSA); test: as above; conditions: 14 days after application, rating scale 0-100
# Method in brief: as §1
# [4] = tested on: barnyardgrass (Echinochloa crusgalli, ECHCG); test: as above; conditions: 14 days after application, rating scale 0-100
# Method in brief: as §1
# [5] = tested on: Johnsongrass (Sorghum halepense, SORHA); test: as above; conditions: 14 days after application, rating scale 0-100
# Method in brief: as §1
# [6] = tested on: velvetleaf (Abutilon theophrasti, ABUTH); test: as above; conditions: 14 days after application, rating scale 0-100
# Method in brief: as §1
# [7] = tested on: common ragweed (Ambrosia artemisiifolia L., AMBEL); test: as above; conditions: 14 days after application, rating scale 0-100
# Method in brief: as §1
# [8] = tested on: redroot pigweed (Amaranthus retroflexus, AMARE); test: as above; conditions: 14 days after application, rating scale 0-100
# Method in brief: as §1
# [9] = tested on: sicklepod (Cassia obtusifolia, CASOB); test: as above; conditions: 14 days after application, rating scale 0-100
# Method in brief: as §1
# [10] = tested on: green foxtail (Setaria viridis, SETVI); test: as above; conditions: 14 days after application, rating scale 0-100
# Method in brief: as §1
# [11] = tested on: ivyleaf morningglory (Ipomoea hederacea, IPOHE); test: Post-emerge greenhouse herbicide test, phytotoxicity rating; conditions: 14 days after application, scale 0-100
# Method in brief: (§2)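 Scores use a 0 (no damage) to 100 (complete kill) scale, taken 14 days after a foliar spray. Acetone solutions with 0.25% v/v non-ionic surfactant were applied by track sprayer at 187 l/ha and 63-1000 g ai/ha to bottom-watered 2-3 leaf plants.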
# [12] = tested on: lambsquarters (Chenopodium album, CHEAL); test: as above; conditions: 14 days after application, scale 0-100
# Method in brief: as §2
# [13] = tested on: large crabgrass (Digitaria sanguinalis, DIGSA); test: as above; conditions: 14 days after application, scale 0-100
# Method in brief: as §2
# [14] = tested on: barnyardgrass (Echinochloa crusgalli, ECHCG); test: as above; conditions: 14 days after application, scale 0-100
# Method in brief: as §2
# [15] = tested on: Johnsongrass (Sorghum halepense, SORHA); test: as above; conditions: 14 days after application, scale 0-100
# Method in brief: as §2
# [16] = tested on: velvetleaf (Abutilon theophrasti, ABUTH); test: as above; conditions: 14 days after application, scale 0-100
# Method in brief: as §2
# [17] = tested on: redroot pigweed (Amaranthus retroflexus, AMARE); test: as above; conditions: 14 days after application, scale 0-100
# Method in brief: as §2
# [18] = tested on: sicklepod (Cassia obtusifolia, CASOB); test: as above; conditions: 14 days after application, scale 0-100
# Method in brief: as §2
# [19] = tested on: green foxtail (Setaria viridis, SETVI); test: as above; conditions: 14 days after application, scale 0-100
# Method in brief: as §2
# [20] = tested on: common ragweed (Ambrosia artemisiifolia L., AMBEL); test: as above; conditions: 14 days after application, scale 0-100
# Method in brief: as §2
# [21] = tested on: soybean (Glycine max L., var. Pella 86, SOY); test: Pre-emerge greenhouse test, crop damage rating; design: key to SOY crop damage rating: 0 = no damage, 100 = complete death of all plants; conditions: 14 days after application, rating scale 0-100
# Method in brief: as §1
# [22] = tested on: field corn (Zea mays L., var. Dekalb 535, CORN); test: Pre-emerge greenhouse test, crop damage rating; conditions: 14 days after application, rating scale 0-100
# Method in brief: as §1
# [23] = tested on: upland rice (Oryza sp., var.Tebonnet, RICE); test: Pre-emerge greenhouse test, crop damage rating; conditions: 14 days after application, rating scale 0-100
# Method in brief: as §1
# [24] = tested on: soybean (Glycine max L., var. Pella 86, SOY); test: Post-emerge greenhouse test, crop damage rating; design: key to crop damage rating SOY: 0-100 scale: 0 = no damage, 100 = complete death of all plants; conditions: 14 days after application, scale 0-100
# Method in brief: as §2
# [25] = tested on: field corn (Zea mays L., var. Dekalb 535, CORN); test: Post-emerge greenhouse test, crop damage rating; conditions: 14 days after application, scale 0-100
# Method in brief: as §2
# [26] = tested on: upland rice (Oryza sp., var.Tebonnet, RICE); test: Post-emerge greenhouse test, crop damage rating; conditions: 14 days after application, scale 0-100
# Method in brief: as §2
structure (smiles),measurement,setting,value
N#Cc1cccnc1Oc1cc(-n2c(=O)n3n(c2=S)CCCC3)c(F)cc1Cl [Compound 8-20],IPOHE phytotoxicity rating,[1]; Rate 125 g al/ha,95
same,IPOHE phytotoxicity rating,[1]; Rate 500 g al/ha,100
same,CHEAL phytotoxicity rating,[2]; Rate 125 g al/ha,100
same,CHEAL phytotoxicity rating,[2]; Rate 500 g al/ha,100
same,DIGSA phytotoxicity rating,[3]; Rate 125 g al/ha,40
same,DIGSA phytotoxicity rating,[3]; Rate 500 g al/ha,100
same,ECHCG phytotoxicity rating,[4]; Rate 125 g al/ha,60
same,ECHCG phytotoxicity rating,[4]; Rate 500 g al/ha,80
same,SORHA phytotoxicity rating,[5]; Rate 125 g al/ha,40
same,SORHA phytotoxicity rating,[5]; Rate 500 g al/ha,90
same,ABUTH phytotoxicity rating,[6]; Rate 125 g al/ha,100
same,ABUTH phytotoxicity rating,[6]; Rate 500 g al/ha,100
same,AMBEL phytotoxicity rating,[7]; Rate 125 g al/ha,90
same,AMBEL phytotoxicity rating,[7]; Rate 500 g al/ha,100
same,AMARE phytotoxicity rating,[8]; Rate 125 g al/ha,100
same,AMARE phytotoxicity rating,[8]; Rate 500 g al/ha,100
same,CASOB phytotoxicity rating,[9]; Rate 125 g al/ha,90
same,CASOB phytotoxicity rating,[9]; Rate 500 g al/ha,100
same,SETVI phytotoxicity rating,[10]; Rate 125 g al/ha,95
same,SETVI phytotoxicity rating,[10]; Rate 500 g al/ha,100
same,phytotoxicity rating IPOHE,[11]; rate 63 g ai/ha,100
same,phytotoxicity rating IPOHE,[11]; rate 500 g ai/ha,100
same,phytotoxicity rating CHEAL,[12]; rate 63 g ai/ha,95
same,phytotoxicity rating CHEAL,[12]; rate 500 g ai/ha,100
same,phytotoxicity rating DIGSA,[13]; rate 63 g ai/ha,30
same,phytotoxicity rating DIGSA,[13]; rate 500 g ai/ha,30
same,phytotoxicity rating ECHCG,[14]; rate 63 g ai/ha,20
same,phytotoxicity rating ECHCG,[14]; rate 500 g ai/ha,40
same,phytotoxicity rating SORHA,[15]; rate 63 g ai/ha,90
same,phytotoxicity rating SORHA,[15]; rate 500 g ai/ha,100
same,phytotoxicity rating ABUTH,[16]; rate 63 g ai/ha,100
same,phytotoxicity rating ABUTH,[16]; rate 500 g ai/ha,100
same,phytotoxicity rating AMARE,[17]; rate 63 g ai/ha,100
same,phytotoxicity rating AMARE,[17]; rate 500 g ai/ha,100
same,phytotoxicity rating CASOB,[18]; rate 63 g ai/ha,90
same,phytotoxicity rating CASOB,[18]; rate 500 g ai/ha,100
same,phytotoxicity rating SETVI,[19]; rate 63 g ai/ha,70
same,phytotoxicity rating SETVI,[19]; rate 500 g ai/ha,0
same,phytotoxicity rating AMBEL,[20]; rate 63 g ai/ha,90
same,phytotoxicity rating AMBEL,[20]; rate 500 g ai/ha,100
same,SOY crop damage rating,[21]; Rate 125 g al/ha,20
same,SOY crop damage rating,[21]; Rate 500 g al/ha,25
same,CORN crop damage rating,[22]; Rate 125 g al/ha,5
same,CORN crop damage rating,[22]; Rate 500 g al/ha,10
same,RICE crop damage rating,[23]; Rate 125 g al/ha,20
same,RICE crop damage rating,[23]; Rate 500 g al/ha,40
same,crop damage rating SOY,[24]; rate 63 g ai/ha,90
same,crop damage rating SOY,[24]; rate 500 g ai/ha,100
same,crop damage rating CORN,[25]; rate 63 g ai/ha,15
same,crop damage rating CORN,[25]; rate 500 g ai/ha,20
same,crop damage rating RICE,[26]; rate 63 g ai/ha,15
same,crop damage rating RICE,[26]; rate 500 g ai/ha,60
N#Cc1ccc(Oc2cc(-n3c(=O)n4n(c3=S)CCCC4)c(F)cc2Cl)nc1 [Compound 8-22],IPOHE phytotoxicity rating,[1]; Rate 125 g al/ha,40
same,IPOHE phytotoxicity rating,[1]; Rate 500 g al/ha,10
same,CHEAL phytotoxicity rating,[2]; Rate 125 g al/ha,100
same,CHEAL phytotoxicity rating,[2]; Rate 500 g al/ha,100
same,DIGSA phytotoxicity rating,[3]; Rate 125 g al/ha,20
same,DIGSA phytotoxicity rating,[3]; Rate 500 g al/ha,90
same,ECHCG phytotoxicity rating,[4]; Rate 125 g al/ha,0
same,ECHCG phytotoxicity rating,[4]; Rate 500 g al/ha,30
same,SORHA phytotoxicity rating,[5]; Rate 125 g al/ha,0
same,SORHA phytotoxicity rating,[5]; Rate 500 g al/ha,20
same,ABUTH phytotoxicity rating,[6]; Rate 125 g al/ha,100
same,ABUTH phytotoxicity rating,[6]; Rate 500 g al/ha,100
same,AMBEL phytotoxicity rating,[7]; Rate 125 g al/ha,100
same,AMBEL phytotoxicity rating,[7]; Rate 500 g al/ha,100
same,AMARE phytotoxicity rating,[8]; Rate 125 g al/ha,100
same,AMARE phytotoxicity rating,[8]; Rate 500 g al/ha,100
same,CASOB phytotoxicity rating,[9]; Rate 125 g al/ha,20
same,CASOB phytotoxicity rating,[9]; Rate 500 g al/ha,90
same,SETVI phytotoxicity rating,[10]; Rate 125 g al/ha,40
same,SETVI phytotoxicity rating,[10]; Rate 500 g al/ha,100
same,phytotoxicity rating IPOHE,[11]; rate 63 g ai/ha,80
same,phytotoxicity rating IPOHE,[11]; rate 500 g ai/ha,100
same,phytotoxicity rating CHEAL,[12]; rate 63 g ai/ha,100
same,phytotoxicity rating CHEAL,[12]; rate 500 g ai/ha,100
same,phytotoxicity rating DIGSA,[13]; rate 63 g ai/ha,0
same,phytotoxicity rating DIGSA,[13]; rate 500 g ai/ha,30
same,phytotoxicity rating ECHCG,[14]; rate 63 g ai/ha,10
same,phytotoxicity rating ECHCG,[14]; rate 500 g ai/ha,30
same,phytotoxicity rating SORHA,[15]; rate 63 g ai/ha,0
same,phytotoxicity rating SORHA,[15]; rate 500 g ai/ha,30
same,phytotoxicity rating ABUTH,[16]; rate 63 g ai/ha,100
same,phytotoxicity rating ABUTH,[16]; rate 500 g ai/ha,100
same,phytotoxicity rating AMARE,[17]; rate 63 g ai/ha,95
same,phytotoxicity rating AMARE,[17]; rate 500 g ai/ha,100
same,phytotoxicity rating CASOB,[18]; rate 63 g ai/ha,50
same,phytotoxicity rating CASOB,[18]; rate 500 g ai/ha,80
same,phytotoxicity rating SETVI,[19]; rate 63 g ai/ha,20
same,phytotoxicity rating SETVI,[19]; rate 500 g ai/ha,75
same,phytotoxicity rating AMBEL,[20]; rate 63 g ai/ha,80
same,phytotoxicity rating AMBEL,[20]; rate 500 g ai/ha,100
same,SOY crop damage rating,[21]; Rate 125 g al/ha,50
same,SOY crop damage rating,[21]; Rate 500 g al/ha,70
same,CORN crop damage rating,[22]; Rate 125 g al/ha,0
same,CORN crop damage rating,[22]; Rate 500 g al/ha,60
same,RICE crop damage rating,[23]; Rate 125 g al/ha,0
same,RICE crop damage rating,[23]; Rate 500 g al/ha,40
same,crop damage rating SOY,[24]; rate 63 g ai/ha,65
same,crop damage rating SOY,[24]; rate 500 g ai/ha,95
same,crop damage rating CORN,[25]; rate 63 g ai/ha,53
same,crop damage rating CORN,[25]; rate 500 g ai/ha,15
same,crop damage rating RICE,[26]; rate 63 g ai/ha,5
same,crop damage rating RICE,[26]; rate 500 g ai/ha,10

# — patent US6479435B1, “Diaryl ethers and processes for their preparation and herbicidal and desiccant compositions containing them” (ISK Americas Incorporated, priority 1997, dated 2002)
